Measurements as given in patent US7074447B2 (Laboratories Miret, S.A., priority 2001, dated 2006).

What was measured:
Assay in all cases: minimum inhibition concentration and Kull synergy index of LAE / potassium sorbate
Type in all cases: cell-based
[1] = tested on: Escherichia coli (ATCC 8739); details: for SI, synergy index: <1 synergism, 1 addition, >1 antagonism
Description: (§1) The invention is now explained by a number of examples. In these examples LAE and sorbate alone and in a number of different combinations have been investigated against a number of bacterial preparations. For the analysis usually an internal method was used. Conditions and medium were Mueller Hinton broth (pH 7.4) or (pH 5.0) for bacteria, Sabouraud broth (pH 5.8) for yeast and Sabouraud medium for moulds. The interaction of the two components of the antimicrobial mixture is calculated according to the method described by Kull et al. (Kull […]. and Mayer R. L., Applied Microbiology, 1961; 6:538-541). According to this method the so-called synergy index is calculated according to the following formula: Synergy index […]. […] The same method was used as described for example 1. […] Again the effects of the components alone and in combination have been calculated using the same method as described at Example 1.

[2] = tested on: Cladosporium cladosporioides (ATCC 16022); details: for SI, synergy index: <1 synergism, 1 addition, >1 antagonism
Description: as §1

[3] = tested on: Citrobacter intermedium (CECT 401); details: for SI, synergy index: <1 synergism, 1 addition, >1 antagonism
Description: as §1

[4] = tested on: Enterobacter aerogenes (ATCC 13048); details: for SI, synergy index: <1 synergism, 1 addition, >1 antagonism
Description: as §1

[5] = tested on: Penicillium camemberti (CECT 2267); details: for SI, synergy index: <1 synergism, 1 addition, >1 antagonism
Description: as §1

[6] = tested on: Candida albicans (ATCC 10231); details: for SI, synergy index: <1 synergism, 1 addition, >1 antagonism
Description: as §1, with “Conditions and medium were Mueller Hinton broth (pH 7.4) or (pH 5.0) for bacteria, Sabouraud broth (pH 5.8) for yeast and Sabouraud medium for moulds.” left out

[7] = tested on: Bacillus subtilis (CECT 356); details: for SI, synergy index: <1 synergism, 1 addition, >1 antagonism
Description: The invention is now explained by a number of examples. In these examples LAE and sorbate alone and in a number of different combinations have been investigated against a number of bacterial preparations. For the analysis usually an internal method was used. Conditions and medium were Mueller Hinton broth (pH 7.4) or (pH 5.0) for bacteria, Sabouraud broth (pH 5.8) for yeast and Sabouraud medium for moulds. […] The interaction of the two components of the antimicrobial mixture is calculated according to the method described by Kull et al. (Kull […]. and Mayer R. L., Applied Microbiology, 1961; 6:538-541). According to this method the so-called synergy index is calculated according to the following formula: Synergy index […]. […] All indicated symbols indicate a particular concentration leading to a particular end point, in this case the inhibition of growth of Bacillus subtilis, so that the selected end point is in fact the minimal inhibitory concentration (mic).

[8] = tested on: Staphylococcus aureus (ATCC 6538); details: for SI, synergy index: <1 synergism, 1 addition, >1 antagonism
Description: (§2) The invention is now explained by a number of examples. In these examples LAE and sorbate alone and in a number of different combinations have been investigated against a number of bacterial preparations. For the analysis usually an internal method was used. Conditions and medium were Mueller Hinton broth (pH 7.4) or (pH 5.0) for bacteria, Sabouraud broth (pH 5.8) for yeast and Sabouraud medium for moulds. The interaction of the two components of the antimicrobial mixture is calculated according to the method described by Kull et al. (Kull […]. and Mayer R. L., Applied Microbiology, 1961; 6:538-541). According to this method the so-called synergy index is calculated according to the following formula: Synergy index […]. […] Again the effects of the components alone and in combination have been calculated using the same method as described at Example 1.

[9] = tested on: Bacillus megaterium (CECT 44); details: pH 7.4, aqueous solutions
Description: as §2

[10] = pH 7.4, propylene glycol solutions

SMILES: C/C=C/C=C/C(=O)[O-].[K+] [potassium sorbate]
- QS, minimum inhibition concentration of potassium sorbate as single antimicrobial ([1]; pH 5.0): 1024
- Qlae, minimum inhibition concentration of LAE in the mixture ([1]; pH 5.0): 0
- Qlae/QLAE ([1]; pH 5.0): 0
- Qs, minimum inhibition concentration of potassium sorbate in the mixture ([1]; pH 5.0): 1024.00
- Qs/QS ([1]; pH 5.0): 1.00
- SI, synergy index ([1]; pH 5.0): 1.00
- QS, minimum inhibition concentration of potassium sorbate as single antimicrobial ([1]; pH 7.4, aqueous solutions): 1536
- Qlae, minimum inhibition concentration of LAE in the mixture ([1]; pH 7.4, aqueous solutions): 0
- Qlae/QLAE ([1]; pH 7.4, aqueous solutions): 0
- Qs, minimum inhibition concentration of potassium sorbate in the mixture ([1]; pH 7.4, aqueous solutions): 1536
- Qs/QS ([1]; pH 7.4, aqueous solutions): 1.00
- SI, synergy index ([1]; pH 7.4, aqueous solutions): 1.00
- QS, minimum inhibition concentration of potassium sorbate as single antimicrobial ([2]; pH 5.0): 1024
- Qlae, minimum inhibition concentration of LAE in the mixture ([2]; pH 5.0): 0
- Qlae/QLAE ([2]; pH 5.0): 0
- Qs, minimum inhibition concentration of potassium sorbate in the mixture ([2]; pH 5.0): 1024.00
- Qs/QS ([2]; pH 5.0): 1.00
- SI, synergy index ([2]; pH 5.0): 1.00
- QS, minimum inhibition concentration of potassium sorbate as single antimicrobial ([2]; pH 7.4, aqueous solutions): 1024
- Qlae, minimum inhibition concentration of LAE in the mixture ([2]; pH 7.4, aqueous solutions): 0
- Qlae/QLAE ([2]; pH 7.4, aqueous solutions): 0.00
- Qs, minimum inhibition concentration of potassium sorbate in the mixture ([2]; pH 7.4, aqueous solutions): 1024
- Qs/QS ([2]; pH 7.4, aqueous solutions): 1.00
- SI, synergy index ([2]; pH 7.4, aqueous solutions): 1.00
- QS, minimum inhibition concentration of potassium sorbate as single antimicrobial ([3]; pH 5.0): 512
- Qlae, minimum inhibition concentration of LAE in the mixture ([3]; pH 5.0): 0
- Qlae/QLAE ([3]; pH 5.0): 0
- Qs, minimum inhibition concentration of potassium sorbate in the mixture ([3]; pH 5.0): 1024.00
- Qs/QS ([3]; pH 5.0): 1.00
- SI, synergy index ([3]; pH 5.0): 1.00
- QS, minimum inhibition concentration of potassium sorbate as single antimicrobial ([3]; pH 7.4, aqueous solutions): 1536
- Qlae, minimum inhibition concentration of LAE in the mixture ([3]; pH 7.4, aqueous solutions): 0
- Qlae/QLAE ([3]; pH 7.4, aqueous solutions): 0
- Qs, minimum inhibition concentration of potassium sorbate in the mixture ([3]; pH 7.4, aqueous solutions): 1536
- Qs/QS ([3]; pH 7.4, aqueous solutions): 1.00
- SI, synergy index ([3]; pH 7.4, aqueous solutions): 1.00
- QS, minimum inhibition concentration of potassium sorbate as single antimicrobial ([4]; pH 5.0): 1024
- Qlae, minimum inhibition concentration of LAE in the mixture ([4]; pH 5.0): 0
- Qlae/QLAE ([4]; pH 5.0): 0
- Qs, minimum inhibition concentration of potassium sorbate in the mixture ([4]; pH 5.0): 1024.00
- Qs/QS ([4]; pH 5.0): 1.00
- SI, synergy index ([4]; pH 5.0): 1.00
- QS, minimum inhibition concentration of potassium sorbate as single antimicrobial ([4]; pH 7.4, aqueous solutions): 1536
- Qlae, minimum inhibition concentration of LAE in the mixture ([4]; pH 7.4, aqueous solutions): 0
- Qs, minimum inhibition concentration of potassium sorbate in the mixture ([4]; pH 7.4, aqueous solutions): 1536
- Qs/QS ([4]; pH 7.4, aqueous solutions): 1.00
- SI, synergy index ([4]; pH 7.4, aqueous solutions): 1.00
- QS, minimum inhibition concentration of potassium sorbate as single antimicrobial ([5]; pH 5.0): 1024
- Qlae, minimum inhibition concentration of LAE in the mixture ([5]; pH 5.0): 0
- Qlae/QLAE ([5]; pH 5.0): 0
- Qs, minimum inhibition concentration of potassium sorbate in the mixture ([5]; pH 5.0): 1024.00
- Qs/QS ([5]; pH 5.0): 1.00
- SI, synergy index ([5]; pH 5.0): 1.00
- QS, minimum inhibition concentration of potassium sorbate as single antimicrobial ([5]; pH 7.4, aqueous solutions): 2048
- Qlae, minimum inhibition concentration of LAE in the mixture ([5]; pH 7.4, aqueous solutions): 0
- Qlae/QLAE ([5]; pH 7.4, aqueous solutions): 0
- Qs, minimum inhibition concentration of potassium sorbate in the mixture ([5]; pH 7.4, aqueous solutions): 2048
- Qs/QS ([5]; pH 7.4, aqueous solutions): 1.00
- SI, synergy index ([5]; pH 7.4, aqueous solutions): 1.00
- QS, minimum inhibition concentration of potassium sorbate as single antimicrobial ([6]; pH 5.0): 1024
- Qlae, minimum inhibition concentration of LAE in the mixture ([6]; pH 5.0): 0
- Qlae/QLAE ([6]; pH 5.0): 0
- Qs, minimum inhibition concentration of potassium sorbate in the mixture ([6]; pH 5.0): 1024.00
- Qs/QS ([6]; pH 5.0): 1.00
- SI, synergy index ([6]; pH 5.0): 1.00
- QS, minimum inhibition concentration of potassium sorbate as single antimicrobial ([6]; pH 7.4, aqueous solutions): 1024
- Qlae, minimum inhibition concentration of LAE in the mixture ([6]; pH 7.4, aqueous solutions): 0
- Qlae/QLAE ([6]; pH 7.4, aqueous solutions): 0
- Qs, minimum inhibition concentration of potassium sorbate in the mixture ([6]; pH 7.4, aqueous solutions): 1024.00
- Qs/QS ([6]; pH 7.4, aqueous solutions): 1.00
- SI, synergy index ([6]; pH 7.4, aqueous solutions): 1.00
- QS, minimum inhibition concentration of potassium sorbate as single antimicrobial ([7]; pH 5.0): 1024
- Qlae, minimum inhibition concentration of LAE in the mixture ([7]; pH 5.0): 0
- Qlae/QLAE ([7]; pH 5.0): 0
- Qs, minimum inhibition concentration of potassium sorbate in the mixture ([7]; pH 5.0): 1024.00
- Qs/QS ([7]; pH 5.0): 1.00
- SI, synergy index ([7]; pH 5.0): 1.00
- QS, minimum inhibition concentration of potassium sorbate as single antimicrobial [7, 10]: 1024
- Qlae, minimum inhibition concentration of LAE in the mixture [7, 10]: 0
- Qlae/QLAE [7, 10]: 0
- Qs, minimum inhibition concentration of potassium sorbate in the mixture [7, 10]: 1024
- Qs/QS [7, 10]: 1.00
- SI, synergy index [7, 10]: 1.00
- QS, minimum inhibition concentration of potassium sorbate as single antimicrobial ([8]; pH 5.0): 1024
- Qlae, minimum inhibition concentration of LAE in the mixture ([8]; pH 5.0): 0
- Qlae/QLAE ([8]; pH 5.0): 0
- Qs, minimum inhibition concentration of potassium sorbate in the mixture ([8]; pH 5.0): 1024.00
- Qs/QS ([8]; pH 5.0): 1.00
- SI, synergy index ([8]; pH 5.0): 1.00
- QS, minimum inhibition concentration of potassium sorbate as single antimicrobial ([8]; pH 7.4, aqueous solutions): 1536
- Qlae, minimum inhibition concentration of LAE in the mixture ([8]; pH 7.4, aqueous solutions): 0
- Qlae/QLAE ([8]; pH 7.4, aqueous solutions): 0.0
- Qs, minimum inhibition concentration of potassium sorbate in the mixture ([8]; pH 7.4, aqueous solutions): 1536
- Qs/QS ([8]; pH 7.4, aqueous solutions): 1.00
- SI, synergy index ([8]; pH 7.4, aqueous solutions): 1.00
- QS, minimum inhibition concentration of potassium sorbate as single antimicrobial [9]: 1024
- Qlae, minimum inhibition concentration of LAE in the mixture [9]: 0
- Qlae/QLAE [9]: 0
- Qs, minimum inhibition concentration of potassium sorbate in the mixture [9]: 1024
- Qs/QS [9]: 1.00
- SI, synergy index ([9]; <1 synergism, 1 addition, >1 antagonism): 1.00
